Like-named read-outs stand apart in the source and are kept apart here.
Experiments:
CYP2C19 = experiment: dosing recommendation per CYP2C19 metabolizer subgroup as percentage of usual population dose (Equations 4-6)
Source text: Assuming the goal is to maintain the same AUC for all three subpopulations of patients, the following subpopulation dosing relationships hold: DPM=DEM*(AUCEM/AUCPM) OR DPM=DEM*R if R=(AUCEM/AUCPM) (Equation 2) DIM=DEM*(AUCEM/AUCIM) OR DIM=DEM*S if S=(AUCEM/AUCIM) (Equation 3)
By substituting equations 2 and 3 into equation 1, and then rearranging the equation to solve for the percent dose adjustment needed for each subgroup relative to the population dose: DEM(%)=100/(fEM+fIM*S+fPM*R) (Equation 4) DPM(%)=R*DEM (Equation 5) DIM(%)=S*DEM (Equation 6) Equations 4, 5, and 6 show how the dosing for the more homogeneous subgroups is determined and how the dosing results are expressed as a fraction of the clinician's usual heterogeneous whole group dosages. Determining “Minimal Dose Adjustment Units”
Example: The approach in the previous section leads to individualized initial drug dose recommendations for each of the 3 subgroups (extensive, poor and intermediate metabolizers). Each subgroup represents a specific number of functional alleles for the specific DME (extensive metabolizers have 2 functional, intermediate metabolizers have 1 functional and poor metabolizers have 0 functional). The resultant dosing recommendations are expressed as percentages of the clinician's usual starting dose. It is possible to investigate the effect of increasing numbers of non-functional alleles using these new dosing recommendations. For example, if DRX % is the dosing recommendation for subgroup X expressed as a percentage of the clinician's usual starting dose then the following are true: Effect of […] 1 non-functional allele=(DREM %−DRIM %)/DREM % Effect of 2 non-functional allele=(DREM %−DRPM %)/DREM % Below is a spreadsheet (Table 3) that examines this for CYP2D6, CYP2C19 and CYP2C9. […] 2C9 has 2 MDA units per non-functional allele.

[1] = CYP2D6, ratio of the two effects
[2] = CYP2D6 extensive metabolizers, percent of usual dose
[3] = CYP2D6 intermediate metabolizers, percent of usual dose
[4] = CYP2D6 poor metabolizers, percent of usual dose
[5] = CYP2D6 ultrarapid metabolizers, percent of usual dose

Row | SMILES | 1 al (effect of 1 non-functional allele) (CYP2D6; human) | 2 al (effect of 2 non-functional alleles) (CYP2D6; human) | 2 al/1 al (CYP2D6; human) | EM (%) dosing recommendation (CYP2D6; human) | IM (%) dosing recommendation (CYP2D6; human) | PM (%) dosing recommendation (CYP2D6; human) | UM (%) dosing recommendation (CYP2D6; human) | further results
1 | CN1CCN(CCCN2c3ccccc3Sc3ccccc32)CC1 [perazine] | 0.17 | 0.22 | 1.26 | 110% | 91% | 86% | 117% | 
2 | CCc1nn(CCCN2CCN(c3cccc(Cl)c3)CC2)c(=O)n1CCOc1ccccc1 [nefazodone] | 0.08 | 0.14 | 1.88 | 105% | 97% | 90% | 113% | 
3 | COc1ccc2c(c1)N(C[C@H](C)CN(C)C)c1ccccc1S2 [levomepromazine] | 0.00 | 0.00 |  | 100% | 100% | 100% | 100% | 
4 | CNCCCN1c2ccccc2CCc2ccccc21 [desipramine] | 0.34 | 0.66 | 1.98 | 125% | 83% | 42% | 167% | 
5 | CN[C@H]1CC[C@@H](c2ccc(Cl)c(Cl)c2)c2ccccc21 [sertraline] | 0.00 | 0.01 |  | 100% | 100% | 99% | 100% | 1 al (effect of 1 non-functional allele) (CYP2C19; human): 0.14; 2 al (effect of 2 non-functional alleles) (CYP2C19; human): 0.29; 2 al/1 al (CYP2C19; human): 2.00; IM (%) dosing recommendation (CYP2C19; human): 90%; PM (%) dosing recommendation (CYP2C19; human): 75%; UM (%) dosing recommendation (CYP2C19; human): 105%
6 | CN1CCN2c3ncccc3Cc3ccccc3C2C1 (stereo not shown) [mirtazapine] | −0.02 | −0.03 |  | 99% | 101% | 102% | 97% | 
7 | CNCCC(Oc1ccc(C(F)(F)F)cc1)c1ccccc1 (stereo not shown) [fluoxetine] | 0.12 | 0.27 |  |  | 94% | 78% | 120% | 1 al (effect of 1 non-functional allele) (CYP2C19; CYP2C19): 0.20; 2 al (effect of 2 non-functional alleles) (CYP2C19; CYP2C19): 0.35; IM (%) dosing recommendation (CYP2C19; CYP2C19 intermediate metabolizers, percent of usual dose): 86%; PM (%) dosing recommendation (CYP2C19; CYP2C19 poor metabolizers, percent of usual dose): 70%
8 | CNCCC=C1c2ccccc2CCc2ccccc21 [nortriptyline] | 0.19 | 0.55 | 2.87 | 119% | 96% | 53% | 152% | 
9 | Cl.Cl.OCCN1CCN(CCC=C2c3ccccc3Sc3ccc(C(F)(F)F)cc32)CC1 (mixture of isomers) [flupentixol] |  |  |  |  |  |  |  | 1 al (effect of 1 non-functional allele) (CYP2D6): 0.26; 2 al (effect of 2 non-functional alleles) (CYP2D6): 0.36; 2 al/1 al (CYP2D6): 1.40; EM (%) dosing recommendation (CYP2D6): 116%; IM (%) dosing recommendation (CYP2D6): 86%; PM (%) dosing recommendation (CYP2D6): 74%; UM (%) dosing recommendation (CYP2D6): 146%
10 | O=C(CCCN1CCC(O)(c2ccc(Cl)cc2)CC1)c1ccc(F)cc1 [haloperidol] | 0.09 | 0.29 | 3.10 | 107% | 97% | 76% | 126% | 
11 | CC(CN(C)C)CN1c2ccccc2CCc2ccccc21 (stereo not shown) [trimipramine] | 0.31 | 0.72 | 2.35 | 131% | 91% | 37% | 178% | 1 al (effect of 1 non-functional allele) (CYP2C19; human): 0.53; 2 al (effect of 2 non-functional alleles) (CYP2C19; human): 0.59; 2 al/1 al (CYP2C19; human): 1.12; IM (%) dosing recommendation (CYP2C19; human): 62%; PM (%) dosing recommendation (CYP2C19; human): 45%; UM (%) dosing recommendation (CYP2C19; human): 111%
12 | O=c1n(CCCN2CCN(c3cccc(Cl)c3)CC2)nc2ccccn12 [trazadone] | 0.15 | 0.31 | 2.00 | 110% | 93% | 76% | 127% | 
13 | OCCN1CCN(CC/C=C2/c3ccccc3Sc3ccc(Cl)cc32)CC1 [zuclopenthixol] | 0.22 | 0.46 | 2.04 | 116% | 90% | 63% | 142% | 
14 | CN(C)CCC=C1c2ccccc2COc2ccccc21 [doxepin] | 0.35 | 0.72 |  | 127% | 82% | 36% | 173% | 1 al (effect of 1 non-functional allele) (CYP2C19; human): 0.13; 2 al (effect of 2 non-functional alleles) (CYP2C19; human): 0.54; IM (%) dosing recommendation (CYP2C19; human): 91%; PM (%) dosing recommendation (CYP2C19; human): 46%
15 | CN(C)CCCC1(c2ccc(F)cc2)OCc2cc(C#N)ccc21 (stereo not shown) [citalopram] | 0.01 | 0.03 |  | 101% | 100% | 98% | 102% | 1 al (effect of 1 non-functional allele) (CYP2C19; human): 0.22; 2 al (effect of 2 non-functional alleles) (CYP2C19; human): 0.44; 2 al/1 al (CYP2C19; human): 1.96; IM (%) dosing recommendation (CYP2C19; human): 84%; PM (%) dosing recommendation (CYP2C19; human): 61%; UM (%) dosing recommendation (CYP2C19; human): 108%
16 | O=C1CCc2ccc(OCCCCN3CCN(c4cccc(Cl)c4Cl)CC3)cc2N1 [aripiprazole] |  |  |  |  |  |  |  | 1 al (effect of 1 non-functional allele) (CYP2D6; CYP2D6, (DREM%-DRIM%)/DREM%): 0.19; 2 al (effect of 2 non-functional alleles) (CYP2D6; CYP2D6, (DREM%-DRPM%)/DREM%): 0.38; 2 al/1 al (CYP2D6; [1]): 2.05; EM (%) dosing recommendation (CYP2D6; [2]): 113%; IM (%) dosing recommendation (CYP2D6; [3]): 92%; PM (%) dosing recommendation (CYP2D6; [4]): 70%; UM (%) dosing recommendation (CYP2D6; [5]): 134%
17 | O=C(NCCN1CCOCC1)c1ccc(Cl)cc1 [moclobemide] | −0.16 | −0.32 |  | 92% | 107% | 121% | 77% | 1 al (effect of 1 non-functional allele) (CYP2C19; human): 0.25; 2 al (effect of 2 non-functional alleles) (CYP2C19; human): 0.51; 2 al/1 al (CYP2C19; human): 2.00; IM (%) dosing recommendation (CYP2C19; human): 82%; PM (%) dosing recommendation (CYP2C19; human): 54%; UM (%) dosing recommendation (CYP2C19; human): 110%
18 | Fc1ccc([C@@H]2CCNC[C@H]2COc2ccc3c(c2)OCO3)cc1 [paroxetine] |  |  |  |  |  |  |  | 1 al (effect of 1 non-functional allele) (CYP2D6; CYP2D6, (DREM%-DRIM%)/DREM%): 0.21; 2 al (effect of 2 non-functional alleles) (CYP2D6; CYP2D6, (DREM%-DRPM%)/DREM%): 0.42; 2 al/1 al (CYP2D6; [1]): 2.00; EM (%) dosing recommendation (CYP2D6; [2]): 114%; IM (%) dosing recommendation (CYP2D6; [3]): 90%; PM (%) dosing recommendation (CYP2D6; [4]): 66%; UM (%) dosing recommendation (CYP2D6; [5]): 138%
19 | OCCN1CCN(CCCN2c3ccccc3Sc3ccc(Cl)cc32)CC1 [perphenazine] |  |  |  |  |  |  |  | 1 al (effect of 1 non-functional allele) (CYP2D6; CYP2D6, (DREM%-DRIM%)/DREM%): 0.38; 2 al (effect of 2 non-functional alleles) (CYP2D6; CYP2D6, (DREM%-DRPM%)/DREM%): 0.76; 2 al/1 al (CYP2D6; [1]): 2.00; EM (%) dosing recommendation (CYP2D6; [2]): 129%; IM (%) dosing recommendation (CYP2D6; [3]): 80%; PM (%) dosing recommendation (CYP2D6; [4]): 31%; UM (%) dosing recommendation (CYP2D6; [5]): 178%
20 | Cc1nc2n(c(=O)c1CCN1CCC(c3noc4cc(F)ccc34)CC1)CCCC2 [risperidone] | 0.09 |  |  |  |  |  |  | 
21 | COc1ccc(C(CN(C)C)C2(O)CCCCC2)cc1 (stereo not shown) [venlafaxine] |  |  |  |  |  |  |  | 1 al (effect of 1 non-functional allele) (CYP2D6; CYP2D6, (DREM%-DRIM%)/DREM%): 0.21; 2 al (effect of 2 non-functional alleles) (CYP2D6; CYP2D6, (DREM%-DRPM%)/DREM%): 0.38; 2 al/1 al (CYP2D6; [1]): 1.78; EM (%) dosing recommendation (CYP2D6; [2]): 109%; IM (%) dosing recommendation (CYP2D6; [3]): 86%; PM (%) dosing recommendation (CYP2D6; [4]): 68%; UM (%) dosing recommendation (CYP2D6; [5]): 130%
22 | O=c1[nH]c2ccccc2n1C1CCN(CCCC(c2ccc(F)cc2)c2ccc(F)cc2)CC1 [pimozide] | 0.03 | 0.07 |  | 102% | 99% | 95% | 105% | 
23 | CN(C)CCCN1c2ccccc2CCc2ccc(Cl)cc21 [clomipramine] |  |  |  |  |  |  |  | 1 al (effect of 1 non-functional allele) (CYP2C19; human): 0.28; 2 al (effect of 2 non-functional alleles) (CYP2C19; human): 0.44; IM (%) dosing recommendation (CYP2C19; human): 79%; UM (%) dosing recommendation (CYP2C19; human): 110%

From US8589175B2, “Optimization and individualization of medication selection and dosing” (Children's Hospital Medical Center, priority 2005, dated 2013)
